Test results: US5141947A, “Fibrinolysis-enhancing agents” (Mitsubishi Kasei Corporation, priority 1984, dated 1992)

Experiments:
[1] = tested on: fibrinolysis of plasma by t-PA (tissue plasminogen activator); assay: fibrinolysis of plasma aggregation effected by t-PA; 0.15 ml plasma in 0.7 ml total (Examples 2 and 3); type: biochemical, healthy person (human)
Method: (§1) One part by volume of 3.8% sodium citrate solution was added to 9 parts by volume of the venous blood of a healthy person and centrifuged at 3,000 rpm for 15 minutes to collect the plasma.
(§2) There was placed 0.6 ml of the plasma into a spectrophotometric microcell having a path length of 10 mm and a path width of 2 mm. After adding 0.015 ml of physiological saline containing the compound (Ia) in various concentrations, the cell was held in the cell holder of a spectrophotometer, Hitachi 220 A, which was maintained at 37° C. and incubated for 5 minutes. Into the cell, there was added 0.025 ml of a solution of 8.0 μg/ml t-PA (tissue plasminogen activator) or 3,000 international units per ml high molecular weight UK, urokinase manufactured by The Green Cross Corporation, and […] CaCl2 solution. Changes in the absorbance at 608 nm were recorded at 37° C. every one minute. Thus, the coagulation and fibrinolysis of the plasma were measured with the time lapse.
(§3) The coagulation time is defined as a time period from the time 0 at which CaCl2 solution is added to a coagulation initiation time at which the absorbance has increased to a value larger by 0.025 than the value at the time 0: i.e., delta A is 0.025. The dissolution time is defined as a time period from the coagulation initiation time to a fibrinolysis termination time at which the absorbance has decreased to a value 10% that of the maximum value.
(§4) The procedures of Example 1 were repeated except that a less amount cf plasma was used. Thus, in the same manner as Example 1, there was collected 0.15 ml of plasma to which 0.1 ml of physiological saline containing the compound (Ia) in various concentrations was added, the total volume was adjusted to 0.375 ml, the resulting mixture was incubated at 37° C. for 5 minutes, 0.025 ml of a solution of 1.6 μg/ml t-PA or 500 international units per ml high molecular weight UK and 0.3 ml of 0.025M CaCl2 solution were added, and the coagulation and fibrinolysis of the plasma were measured with the time lapse to determine the coagulation time and dissolution time.
Activities of arginine derivatives having the thrombin-inhibiting effect and the structural formula shown below on the fibrinolysis by t-PA were estimated in the same manner as Example 2.

[2] = acute toxicity, LD50, intravenous, male mice; settings: mouse, in vivo, male mice weighing 20 g
Method: The arginine derivative of the formula (Ia) above was prepared in accordance with Example 2 described in the European Patent Application Publication No. 8746.

[3] = tested on: fibrinolysis of plasma by UK (urokinase); assay: fibrinolysis of plasma aggregation effected by UK; 0.6 ml plasma in 0.7 ml total (Example 1); type: biochemical, healthy person (human); settings: for Coagulation Time / Dissolution Time: n=5, average ± S.E.M.
Method: as §1, §2
(§5) In the FIGURE, the ordinate represents the difference of absorbance (ΔA) at 608 nm and the abscissa represents the time in minutes.
(§6) The effects of the compound (Ia) on the dissolution time and the coagulation time were measured on the plasma from five healthy persons. […] Values in Tables are expressed in the average+S.E.M.
as §3

[4] = tested on: fibrinolysis of plasma by t-PA (tissue plasminogen activator); assay: fibrinolysis of plasma aggregation effected by t-PA; 0.6 ml plasma in 0.7 ml total (Example 1); type: biochemical, healthy person (human); settings: for Coagulation Time / Dissolution Time: n=5, average ± S.E.M.
Method: as §1, §2, §5, §6, §3

[5] = tested on: fibrinolysis of plasma by UK (urokinase); assay: fibrinolysis of plasma aggregation effected by UK; 0.15 ml plasma in 0.7 ml total (Example 2); type: biochemical, healthy person (human)
Method: as §1, §2, §3, §4

[6] = tested on: thrombus in carotid artery of rabbit; assay: in vivo thrombolysis by t-PA, rabbit carotid artery thrombus (Example 4); settings: Compound (Ia) 1.2 mg/kg alone
Method: The carotid artery of a rabbit was exposed from the surrounding tissue under anesthesia by pentobarbital. The exposed artery was surrounded with absorbent cotton soaked with glacial acetic acid and allowed to stay for 3 hours to form thrombus by the damage done to the endorthelium. The thus formed thrombus was tested for dissolution. Immediately after removing out the cotton, physiological saline in which the substance to be tested had been dissolved was injected through the femoral vein. The infusion was continued over 2 hours. After the infusion, the arterial segment wherein the thrombus had been formed was cut out and the thrombus mass was removed out under a microscope. The thrombus was dissolved in alkali and the protein was quantitatively measured by phenol method.

[7] = Table 5, 0.3 μM, control 2.9 min
[8] = Table 5, 0.3 μM, control 95.7 min

COCCN(CC(=O)O)C(=O)[C@H](CCCNC(=N)N)NS(=O)(=O)c1ccc2cc(OC)c(OC)cc2c1 [Compound 1]
Coagulation Time [1, 7]: 3.2 min
Dissolution Time [1, 8]: 55.4 min

COc1ccc2ccc(S(=O)(=O)N[C@@H](CCCNC(=N)N)C(=O)N3CCC(C)CC3C(=O)O)cc2c1 (stereo partly shown) [Compound 2]
Coagulation Time [1, 7]: 4.1 min
Dissolution Time [1, 8]: 36.5 min

CCC1CCN(C(=O)[C@H](CCCNC(=N)N)NS(=O)(=O)c2ccc3cc(OC)c(OC)cc3c2)C(C(=O)O)C1 (stereo partly shown) [Compound 3]
Coagulation Time [1, 7]: 3.2 min
Dissolution Time [1, 8]: 53.4 min

Cc1ccc2ccc(S(=O)(=O)N[C@@H](CCCNC(=N)N)C(=O)N3CCC(C)CC3C(=O)O)cc2c1 (stereo partly shown) [Compound 4]
Coagulation Time [1, 7]: 3.1 min
Dissolution Time [1, 8]: 50.5 min

CC1CNc2c(cccc2S(=O)(=O)N[C@@H](CCCNC(=N)N)C(=O)N2CC[C@@H](C)C[C@@H]2C(=O)O)C1 (stereo partly drawn) [Compound (Ia), (2R, 4R)-1-[N^2-(3-methyl-1,2,3,4-tetrahydro-8-quinolinesulfonyl)-L-arginyl]-4-methyl-2-piperidinecarboxylic acid]
LD50 [2]: 211 mg/kg
dissolution time, in comparison with no addition ([3]; 0.1 μM or 0.3 μM): significantly reduced
Coagulation Time ([3]; 0.1 μM): 8.8 ± 1.1 min
Dissolution Time ([3]; 0.1 μM): 28.2 ± 5.2 min
Coagulation Time ([3]; 0.3 μM): 10.2 ± 1.4 min
Dissolution Time ([3]; 0.3 μM): 24.6 ± 4.3 min
dissolution time, in comparison with no addition ([4]; 0.1 μM or 0.3 μM): significantly reduced
Coagulation Time ([4]; 0.1 μM): 10.6 ± 2.0 min
Dissolution Time ([4]; 0.1 μM): 33.0 ± 2.0 min
Coagulation Time ([4]; 0.3 μM): 13.8 ± 2.8 min
Dissolution Time ([4]; 0.3 μM): 32.0 ± 2.8 min
Coagulation Time ([5]; 0.01 μM): prolonged slightly
Coagulation Time ([5]; 0.01 μM, n=5): 4.9 ± 0.6 min
Dissolution Time ([5]; 0.01 μM, n=5): 63.8 ± 11.8 min
Coagulation Time ([5]; 0.03 μM, n=5): 5.5 ± 0.4 min
Dissolution Time ([5]; 0.03 μM, n=5): 35.9 ± 5.7 min
Coagulation Time ([5]; 0.1 μM, n=5): 7.4 ± 0.8 min
Dissolution Time ([5]; 0.1 μM, n=5): 23.4 ± 2.2 min
dissolution time decreased to fraction of the time without addition ([5]; 0.3 μM): about 1/4
Coagulation Time ([5]; 0.3 μM, n=5): 9.9 ± 0.8 min
Dissolution Time ([5]; 0.3 μM, n=5): 22.5 ± 1.3 min
fibrinolysis ([5]; as low as 0.01 μM): enhanced
Coagulation Time ([1]; 0.01 μM): prolonged slightly
Coagulation Time ([1]; 0.01 μM, n=5): 4.5 ± 0.2 min
Dissolution Time ([1]; 0.01 μM, n=5): 64.1 ± 10.2 min
Coagulation Time ([1]; 0.03 μM, n=5): 5.0 ± 0.2 min
Dissolution Time ([1]; 0.03 μM, n=5): 51.6 ± 7.7 min
Coagulation Time ([1]; 0.1 μM, n=5): 6.7 ± 0.3 min
Dissolution Time ([1]; 0.1 μM, n=5): 34.5 ± 5.2 min
dissolution time decreased to fraction of the time without addition ([1]; 0.3 μM): about 1/3
Coagulation Time ([1]; 0.3 μM, n=5): 9.0 ± 0.3 min
Dissolution Time ([1]; 0.3 μM, n=5): 26.6 ± 2.4 min
fibrinolysis ([1]; as low as 0.01 μM): enhanced
thrombolytic effect [6]: no thrombolytic effect
Thrombus Protein ([6]; 2 h infusion, femoral vein, n=4, saline control 1.97 ± 0.38): 2.03 ± 0.55 mg
